Measurements reported in patent publication US20160115192A1, “ANTIOXIDANT, ANTI-INFLAMMATORY AND ANTICANCER DERIVATIVES OF TRIPTOLIDE AND NANOSPHERES THEREOF” (CEDARS-SINAI MEDICAL CENTER, priority 2013, published 2016).

How the values were obtained:
[1] = cited from earlier work
[2] = 30 minutes after administration; cited from earlier work
[3] = tested on: B7-H1; conditions: known effect, background; cited from earlier work
[4] = tested on: B7-H1 (PD-L1); assay: Inhibition of interferon-γ-dependent expression of B7-H1 (PD-L1) on cancer cells; assay type: cell-based

Compound	solubility in water [1]	lactone form hydrolyzed to an open ring [2] [%]	expression of B7-H1 by cancer cells [3]	inhibitory effect on interferon-γ-dependent expression of B7-H1 (PD-L1) ([4]; MDA-MB-231 triple negative breast cancer cell, FIG. 9)	inhibitory effect on interferon-γ-dependent expression of B7-H1 (PD-L1) ([4]; MDA-MB-468 triple negative breast cancer cell, FIG. 10)	inhibitory effect on interferon-γ-dependent expression of B7-H1 (PD-L1) ([4]; U-87 MG glioma cells, FIG. 8)	inhibitory effect on interferon-γ-dependent expression of B7-H1 (PD-L1) ([4]; U-87 stem-like cells, FIG. 5)	inhibitory effect on interferon-γ-dependent expression of B7-H1 (PD-L1) ([4]; U-251 glioma cell, FIG. 7)	inhibitory effect on interferon-γ-dependent expression of B7-H1 (PD-L1) ([4]; cancer stem cell (CSC-5), FIG. 6)
CC[C@@]1(O)C(=O)OCc2c1cc1n(c2=O)Cc2cc3ccccc3nc2-1 [camptothecin, (S)-4-ethyl-4-hydroxy-1H-pyrano-[3′,4′:6,7]indolizino[1,2-b]quinoline-3, 14(4H,12H)-dione]	essentially insoluble	50							
CC(C)[C@]12O[C@H]1[C@@H]1O[C@]13[C@]1(O[C@H]1C[C@H]1C4=C(CC[C@@]13C)C(=O)OC4)[C@@H]2O [triptolide, Triptolide]			inhibit	inhibitory effect	inhibitory effect	Inhibitory effect	inhibitory effect	inhibitory effect	inhibitory effect
